A word on the IC50: it is the point on the concentration scale where inhibition reaches its midpoint.

This passage reports IC50 results from patent US5179105A, “Phenoxyacetic acid compounds, method for production thereof, and pharmaceutical preparations containing same” (Terumo Kabushiki Kaisha, priority 1990, dated 1993).

Common to all, as to design: species or system Hartley type male guinea pigs
For one assay, the system named is thromboxane A2. In words: in vitro antagonistic action to thromboxane A2 (U-46619-induced shrinkage of excised bronchial segments). To be noted: guinea pig bronchial segments, U-46619 10^-7; read-out: antagonistic action to Tx A2 (IC50). As for the experimental part: (§1) The IC50 values indicative of the in vitro antagonistic actions of the compounds of this invention to thromboxane A2 and leukotriene D4 were determined by the use of the following test system.
(§2) Bronchial segments and ileal segments excised from Hartley type male guinea pigs 350 to 450 g in body weight were suspended under respective loads of 0.3 g and 0.5 g in Magnus baths containing Tyrode solution and kept exposed to passage therethrough of a mixed gas consisting of 95% of oxygen and 5% of carbon dioxide. After the suspended segments were stabilized for about one hour, U-46619 (equivalent to thromboxane A2, produced by Kaiman K. K.) was added in a concentration of 10^-7 to the bath containing the bronchial segments and leukotriene D4 (produced by Wako Pure Chemicals Co., Ltd.) in a concentration of 10^-8 M to the bath containing the […] contrast to the amounts of shrinkage produced in the bronchial segments and ileal segments, the amounts of shrinkage produced by U-46619 in the bronchial segments and the amounts of shrinkage produced by leukotriene D4 in the ileal segments both in the presence of the compounds of this invention added in varying concentrations were measured. The IC50 values were computed based on the results of the measurement.

Assay [1] deals with leukotriene D4. In words: in vitro antagonistic action to leukotriene D4 (LTD4-induced shrinkage of excised ileal segments). The note with it: guinea pig ileal segments, leukotriene D4 10^-8 M. As for the experimental part:
as §1, §2

Assay [2] deals with leukotriene D4. Put plainly: in vitro antagonistic action to leukotriene D4 (LTD4-induced shrinkage of excised bronchial segments). To be noted: guinea pig bronchial segments, leukotriene D4 10^-8 M. As for the experimental part:
as §1, §2

As for `CCCc1c(OCC(=O)Nc2cc(CCCS(=O)(=O)c3ccc(Cl)cc3)ccc2OCC(=O)O)ccc(C(C)=O)c1O`, the IC50 with thromboxane A2 amounted to 4.5 nM; in the assay on leukotriene D4 [1], 3800 nM.

With `CCCc1c(OCCCC(=O)Nc2cc(CCCS(=O)(=O)c3ccc(Cl)cc3)ccc2OCC(=O)O)ccc(C(C)=O)c1O`, the IC50 in the assay with thromboxane A2 turned out to be 50 nM; with leukotriene D4 [1], 430 nM; with leukotriene D4 [2], 70 nM.

As for `O=C(O)COc1ccc(CCCS(=O)(=O)c2ccc(Cl)cc2)cc1NC(=O)c1cccc(OCc2ccc3ccccc3n2)c1` [drawing 21], the values for the IC50 in the assay with thromboxane A2, with leukotriene D4 [1] and with leukotriene D4 [2] were 57 nM, 1.3 nM and 4 nM, respectively.

On to `O=C(O)COc1ccc(CCCS(=O)(=O)c2ccc(Cl)cc2)cc1NC(=O)c1cccc(OCc2ccc3ccccc3n2)c1` [drawing 22], for which the concentration for half-maximal inhibition (IC50) in the assay with thromboxane A2 came to 30 nM; with leukotriene D4 [2] it was 150 nM.

With `O=C(O)COc1ccc(CCCS(=O)(=O)c2ccc(Cl)cc2)cc1NC(=O)c1ccc(OCc2ccc3ccccc3n2)cc1`, the concentration for half-maximal inhibition (IC50) with thromboxane A2 is 26 nM; with leukotriene D4 [1] it was 370 nM.
